Experimental findings from US11629201B2, “PSMA-binding agents and uses thereof” (ITM Isotope Technologies Munich SE, priority 2017, dated 2023) are described below.

Series [1] can be described thus: n-Octanol/PBS distribution coefficient (log D). The settings on record: n-octanol/PBS; radiolabeled ligand, 50 MBq/nmol, PBS pH 7.4. In kind it is physicochemical. How it is done:
The radioligand (0.5 MBq; 10 pmol, 25 μL) was then added to a reagent tube containing 1475 μL of PBS pH 7.4 and 1500 μL of n-octanol. The vials were vortexed vigorously followed by a centrifugation step for phase separation.
Determination of n-Octanol/PBS Distribution Coefficients (Log D Values). The distribution coefficients (log D values) of the ^64Cu-labeled radioligands (50 MBq/nmol) were determined by a shake-flask method using liquid-liquid extraction followed by phase separation as previously reported. Three experiments were performed with five replicates for each radioligand. Statistical significance of the data (p<0.05) was evaluated using an unpaired t-test (GraphPad Prism software, version 7).
Determination of n-Octanol/PBS Distribution Coefficients (Log D Values). […] A sample of the radioligands was mixed with phosphate-buffered saline (PBS) and n-octanol followed by vigorous vortexing. […] Three experiments were performed with five replicates for each compound.

Series [2] deals with PSMA-positive PC-3 PIP cells. Kind of series: Cell uptake and internalization in PSMA-positive PC-3 PIP cells. In kind it is cell-based. The settings on record: 2 h and 4 h time-point, PC-3 PIP cells.
Another series relates to PC-3 PIP tumor. Put plainly: Therapy study in PC-3 PIP tumor-bearing mice. In kind it is in vivo. An excerpt: Mice of Groups B and D received 2 MBq of the radioligand (1 nmol/mouse), whereas mice of Groups C and E received 5 MBq of the radioligand (1 nmol/mouse). The mice were monitored by measuring body weights and the tumor size every other day over 12 weeks. Mice were euthanized when pre-defined endpoint criteria were reached, or when the study was terminated at Day 84. The relative body weight (RBW) was defined as [BWx/BW0], where BWx is the body weight in gram at a given day x and BW0 the body weight in gram at day 0. The tumor dimension was determined by measuring the longest tumor axis (L) and its perpendicular axis (W) with a digital caliper. The tumor volume (V) was calculated according to the equation [V=0.5*(L*W2)]. The relative tumor volume (RTV) was defined as [TVx/TV0], where TVx is the tumor volume in mm3 at a given day x and TV0 the tumor volume in mm3 at Day 0.
The efficacy of the radionuclide therapy was expressed as the tumor growth delay (TGDx), which was calculated as the time required for the tumor volume to increase x-fold over the initial volume at the Day 0. The tumor growth delay index [TGDIx=TGDx(T)/TGDx(C)] was calculated as the TGDx ratio of treated mice (T) over control mice (C) for a 2-fold (x=2, TGD2) and 5-fold (x=5, TGD5) increase of the initial tumor volume. As a measure to identify undesired side effects, body weights were compared at the day when the first control mouse had to be euthanized. After euthanasia, kidneys, liver and the brain were collected and weighed. The organ ratios (kidney-to-brain and liver-to-brain) were calculated using the organ masses obtained at the day of euthanasia.
The data was analyzed for significance as indicated in the result part using a one-way ANOVA with Tukey's multiple comparison post-test using GraphPad Prism software (version 7). A value of p<0.05 was considered statistically significant. Survival analysis was performed with Kaplan-Meier curves and a log-rank tests (Mantel Cox).

Series [3] concerns PC-3 PIP/flu tumor-bearing mice. Kind of series: Biodistribution studies in PC-3 PIP/flu tumor-bearing mice. The settings on record: for Tumor-to-blood / Tumor-to-kidney / Tumor-to-liver: PC-3 PIP tumor.
Where [4] appears, read: 2 MBq/mouse (Groups B, D), control = 1.

One may read the logD as the decadic logarithm of the distribution of all forms, ionised or not, between an organic phase and buffer at a given pH. A low value points to a more hydrophilic compound.

Regarding `O=C(O)CC[C@H](NC(=O)N[C@@H](CCCCNC(=O)[C@H](Cc1ccc2ccccc2c1)NC(=O)[C@H]1CC[C@H](CNC(=O)CN2CCN(CC(=O)O)CCN(CC(=O)O)CCN(CC(=O)O)CC2)CC1)C(=O)O)C(=O)O` [PSMA-617, reference compound], the logD in series [1] is -4.4 ± 0.15.

Consider `O=C(O)CC[C@H](NC(=O)N[C@@H](CCCCNC(=O)[C@H](Cc1ccc2ccccc2c1)NC(=O)[C@H]1CC[C@H](CNC(=O)[C@@H](CCCCNC(=O)CN2CCN(CC(=O)O)CCN(CC(=O)O)CCN(CC(=O)O)CC2)NC(=O)CCCc2ccc(I)cc2)CC1)C(=O)O)C(=O)O` [PSMA-ALB-02], for which, in series [1], the logD is -2.8 ± 0.09.

For the compound `O=C(O)CCC(NC(=O)NC(CCCCNC(=O)C(Cc1ccc2ccccc2c1)NC(=O)C1CCC(CNC(=O)C(CCCCNC(=O)CN2CCN(CC(=O)O)CCN(CC(=O)O)CCN(CC(=O)O)CC2)NC(=O)CC(NC(=O)CC(NC(=O)CCCc2ccc(I)cc2)C(=O)O)C(=O)O)CC1)C(=O)O)C(=O)O` (centres unmarked) [PSMA-ALB-05], the log distribution coefficient (logD) in series [1] is -3.5 ± 0.08.

Regarding `O=C(O)CCC(NC(=O)NC(CCCCNC(=O)C(Cc1ccc2ccccc2c1)NC(=O)C1CCC(CNC(=O)C(CCCCNC(=O)CN2CCN(CC(=O)O)CCN(CC(=O)O)CCN(CC(=O)O)CC2)NC(=O)CC(NC(=O)CC(NC(=O)CC(NC(=O)CCCc2ccc(I)cc2)C(=O)O)C(=O)O)C(=O)O)CC1)C(=O)O)C(=O)O` (centres unmarked) [PSMA-ALB-07], the pH-dependent lipophilicity (logD) in series [1] was -3.9 ± 0.25.

As to `Cc1ccc(CCCC(=O)NCCCCC(NC(=O)CN2CCN(CC(=O)O)CCN(CC(=O)O)CCN(CC(=O)O)CC2)C(=O)NCC2CCC(C(=O)NC(Cc3ccc4ccccc4c3)C(=O)NCCCCC(NC(=O)NC(CCC(=O)O)C(=O)O)C(=O)O)CC2)cc1` (centres unmarked) [^64Cu-PSMA-ALB-06, metal not drawn], the logD in series [1] was -3.1 ± 0.1.

As for `Cc1ccc(CCCC(=O)NCCCCC(NC(=O)CN2CCN(CC(=O)O)CCN(CC(=O)O)CCN(CC(=O)O)CC2)C(=O)NCC2CCC(C(=O)NC(Cc3ccc4ccccc4c3)C(=O)NCCCCC(NC(=O)NC(CCC(=O)O)C(=O)O)C(=O)O)CC2)cc1` (centres unmarked) [^177Lu-PSMA-ALB-06, metal not drawn], in series [2], the “internalized fraction / internalization rate versus reference” value was “still comparable to ^177Lu-PSMA-617”. Besides, in the series with PC-3 PIP tumor (2 MBq/mouse (Groups B, D)), the “first mouse of group euthanized” value was 28 days and the median survival is 36 days. For the same compound, in the series with PC-3 PIP tumor (setting [4]), the TGDI2 is 1.8 ± 0.5 and the TGDI5 is given as 2.3 ± 0.6. In addition, the tumor growth entry with PC-3 PIP tumor (5 MBq/mouse (Group E)) was “the tumor growth was effectively inhibited”. Further, in the series with PC-3 PIP tumor (5 MBq/mouse (Group E), n=6), the “mice in which tumors disappeared entirely, no regrowth until Day 84” value is reported as “four” and the “mice still alive at the end of the study at Day 84” value is given as “four”. Further, in the series on PC-3 PIP tumor (5 MBq/mouse (Groups C, E)), the “first mouse of group euthanized” value amounted to 58 days. In series [3] (4 h p.i.), the Blood was 16.2 ± 1.40 % IA/g, the Bone was found to be 2.23 ± 0.08 % IA/g, the Intestines is 2.64 ± 0.27 % IA/g and the Lung was 9.40 ± 1.55 % IA/g. In series [3] (4 h p.i.), the Muscle is 1.60 ± 0.38 % IA/g, the “PC-3 PIP Tumor” value is 76.08 ± 7.67 % IA/g, the Tumor-to-blood is reported as 4.72 ± 0.51 and the Tumor-to-kidney turned out to be 4.02 ± 0.25. In addition, the Tumor-to-liver in series [3] (4 h p.i.) is 24.29 ± 8.27. In series [3] (24 h p.i.), this compound showed a Blood of 1.49 ± 0.50 % IA/g, a Bone of 0.41 ± 0.15 % IA/g, a Heart of 0.68 ± 0.18 % IA/g and an Intestines of 0.30 ± 0.06 % IA/g. Also, in series [3] (24 h p.i.), the Lung was found to be 2.48 ± 2.68 % IA/g, the Muscle is recorded as 0.21 ± 0.04 % IA/g, the “PC-3 PIP Tumor” value stood at 108 ± 11.6 % IA/g and the “PC-3 flu Tumor” value stood at 0.79 ± 0.23 % IA/g. Further, in series [3] (24 h p.i.), the Spleen was found to be 0.76 ± 0.18 % IA/g, the Stomach is reported as 0.28 ± 0.07 % IA/g, the Tumor-to-blood was determined as 77.6 ± 21.8 and the Tumor-to-kidney stood at 10.4 ± 1.16. In addition, the Tumor-to-liver in series [3] (24 h p.i.) amounted to 222 ± 49.5. In series [3] (72 h p.i.), this compound yielded a Blood of 0.62 ± 0.06 % IA/g, a Bone of 0.18 ± 0.01 % IA/g, a Heart of 0.26 ± 0.02 % IA/g and an Intestines of 0.15 ± 0.00 % IA/g. In addition, in series [3] (72 h p.i.), the Kidneys turned out to be 5.58 ± 0.62 % IA/g, the Liver is listed as 0.28 ± 0.02 % IA/g, the Lung is on record as 0.67 ± 0.05 % IA/g and the “PC-3 PIP Tumor” value was found to be 77.9 ± 7.52 % IA/g. In addition, in series [3] (72 h p.i.), the “PC-3 flu Tumor” value is listed as 0.43 ± 0.03 % IA/g, the Salivary glands came out at 0.24 ± 0.03 % IA/g, the Stomach was determined as 0.13 ± 0.02 % IA/g and the Tumor-to-blood came to 127 ± 24.9. In series [3] (72 h p.i.), this compound displayed a Tumor-to-kidney of 14.1 ± 2.02 and a Tumor-to-liver of 277 ± 19.3.
